Results on 14 compounds are retold here after patent US20060205733A1, “Endothelin a receptor antagonists in combination with phosphodiesterase 5 inhibitors and uses thereof” (Encysive Pharmaceuticals, priority 2004, published 2006).

The target in data set [1] is T1, ETB (Homo sapiens, UniProt P24530).
T1 sequence (P24530 27-442): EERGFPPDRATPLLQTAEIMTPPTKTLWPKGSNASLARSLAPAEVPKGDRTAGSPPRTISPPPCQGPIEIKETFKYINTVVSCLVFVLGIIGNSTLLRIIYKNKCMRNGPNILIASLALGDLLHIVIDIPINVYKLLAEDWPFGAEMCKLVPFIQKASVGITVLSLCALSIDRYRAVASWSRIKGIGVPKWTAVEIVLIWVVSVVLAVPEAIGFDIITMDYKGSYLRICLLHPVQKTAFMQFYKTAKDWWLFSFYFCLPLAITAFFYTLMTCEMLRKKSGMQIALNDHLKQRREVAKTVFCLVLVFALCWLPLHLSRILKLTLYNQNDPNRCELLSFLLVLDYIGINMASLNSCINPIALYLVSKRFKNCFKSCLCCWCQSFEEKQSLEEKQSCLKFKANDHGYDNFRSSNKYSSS
The note with it: read-out: Binding K1 (nM) to ETB; cited from earlier work.

Data set [2] concerns cytochrome P450 enzymes. Particulars: in vivo; cited from earlier work.
The conditions of data set [3]: in vivo; cited from earlier work.
In data set [4] the target is bile salt export pump (Homo sapiens, UniProt O95342). Particulars: cited from earlier work.
In data set [5] the target is T2, ETA (Homo sapiens, UniProt P25101).
T2 sequence (P25101 21-427): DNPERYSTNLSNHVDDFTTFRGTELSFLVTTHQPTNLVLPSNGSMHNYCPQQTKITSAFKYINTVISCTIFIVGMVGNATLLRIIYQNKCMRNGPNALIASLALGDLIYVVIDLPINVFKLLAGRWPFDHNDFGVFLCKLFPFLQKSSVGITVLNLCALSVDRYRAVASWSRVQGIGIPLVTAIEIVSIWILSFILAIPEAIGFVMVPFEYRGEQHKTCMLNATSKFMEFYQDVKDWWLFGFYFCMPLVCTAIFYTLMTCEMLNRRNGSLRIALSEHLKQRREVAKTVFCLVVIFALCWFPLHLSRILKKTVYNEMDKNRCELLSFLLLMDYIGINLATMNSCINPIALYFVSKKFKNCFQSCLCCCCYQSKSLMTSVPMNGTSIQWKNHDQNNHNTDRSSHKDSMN
The note with it: cited from earlier work; for Selectivity: ETA versus ETB, Table 2.

The nature of data set [6]: Pharmacokinetic drug interaction study, sitaxsentan and sildenafil. Type of data set: in vivo, human. Particulars: for Cmax: healthy subjects; for Cmax / AUC0-t / AUC∞ / CL/F / t½ / λz / AUC(0-inf) / Vd/F / half-life: mean ± SD; for Tmax: median; for Vd/F: read-out: Vz/F; for half-life: read-out: t½ (converted). The procedure: A pharmacokinetic drug interaction study was performed using 24 individuals. In the study, a group of 24 normal, healthy volunteers participated in two treatment periods. […] During the other treatment period, the subjects received placebo for seven days and 100 mg of VIAGRA on the seventh day. Twelve subjects were randomly assigned to each treatment period. When the subjects finished one treatment period, they were switched to the other treatment period.
Samples were drawn (in duplicate) once on days 1, 3, 5 and 6; 15 times on day 7 and once again on day 8 for each treatment period. The samples were stored at a nominal temperature of −20° C. for a duration not exceeding 38 days. All samples were analyzed with a set of calibration standards and low, medium and high concentration Quality Control samples.

In data set [7] the target is T3, ETA (Sus scrofa, UniProt Q29010).
T3 construct: from tissue; host or cells: aortic smooth muscle, ventricle membranes, cultured aortic smooth muscle cells
T3 sequence (Q29010 21-427): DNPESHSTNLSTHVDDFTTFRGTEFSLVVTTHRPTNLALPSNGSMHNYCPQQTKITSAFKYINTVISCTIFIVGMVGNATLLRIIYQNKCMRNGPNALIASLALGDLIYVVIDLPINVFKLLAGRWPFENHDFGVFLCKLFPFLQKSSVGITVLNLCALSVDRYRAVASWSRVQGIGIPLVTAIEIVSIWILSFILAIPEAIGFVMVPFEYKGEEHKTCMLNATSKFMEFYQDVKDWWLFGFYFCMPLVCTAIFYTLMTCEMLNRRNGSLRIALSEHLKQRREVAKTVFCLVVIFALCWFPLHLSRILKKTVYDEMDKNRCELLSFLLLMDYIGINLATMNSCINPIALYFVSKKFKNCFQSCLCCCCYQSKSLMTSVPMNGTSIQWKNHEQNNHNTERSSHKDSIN
The note with it: read-out: IC50, inhibition of 125I-labeled endothelin-1 binding, cited from earlier work.

Data set [8] concerns the target T1, ETB. Particulars: concentrations up to 100 μM; cited from earlier work.
Setting [9] is: read-out: Binding K1 (nM) to ETA.
Where [10] appears, read: single 100 mg oral sildenafil after 100 mg sitaxsentan daily for seven days.
Setting [11] is: single 100 mg oral sildenafil after placebo daily for seven days.
The mark [12] stands for this setting: sitaxsentan versus placebo pretreatment, natural log-transformed data.
Where [13] appears, read: human, plasma, po, 100 mg, single 100 mg oral sildenafil after 100 mg sitaxsentan daily for seven days.
Where [14] appears, read: human, plasma, po, 100 mg, single 100 mg oral sildenafil after placebo daily for seven days.

The term Cmax denotes the highest concentration seen after dosing. One may read the CL/F as the apparent clearance, not corrected for the fraction that reaches the circulation. As a reminder, the t½ is the time in which the quantity being followed falls by half. Low values mean fast loss, high ones slow loss. The Tmax is the time from dosing to the highest level. In general, AUC(0-inf) refers to total exposure, with the tail of the curve extrapolated. Read a low AUC(0-inf) as less exposure. A word on the IC50: it is the concentration at which inhibition is half-maximal.

Where a name gives a salt, the structure may show the parent alone. Read-outs that look alike come from different tables or passages of the source. Some results are limits rather than exact numbers.

bile salt export pump, sequence (O95342 whole entry): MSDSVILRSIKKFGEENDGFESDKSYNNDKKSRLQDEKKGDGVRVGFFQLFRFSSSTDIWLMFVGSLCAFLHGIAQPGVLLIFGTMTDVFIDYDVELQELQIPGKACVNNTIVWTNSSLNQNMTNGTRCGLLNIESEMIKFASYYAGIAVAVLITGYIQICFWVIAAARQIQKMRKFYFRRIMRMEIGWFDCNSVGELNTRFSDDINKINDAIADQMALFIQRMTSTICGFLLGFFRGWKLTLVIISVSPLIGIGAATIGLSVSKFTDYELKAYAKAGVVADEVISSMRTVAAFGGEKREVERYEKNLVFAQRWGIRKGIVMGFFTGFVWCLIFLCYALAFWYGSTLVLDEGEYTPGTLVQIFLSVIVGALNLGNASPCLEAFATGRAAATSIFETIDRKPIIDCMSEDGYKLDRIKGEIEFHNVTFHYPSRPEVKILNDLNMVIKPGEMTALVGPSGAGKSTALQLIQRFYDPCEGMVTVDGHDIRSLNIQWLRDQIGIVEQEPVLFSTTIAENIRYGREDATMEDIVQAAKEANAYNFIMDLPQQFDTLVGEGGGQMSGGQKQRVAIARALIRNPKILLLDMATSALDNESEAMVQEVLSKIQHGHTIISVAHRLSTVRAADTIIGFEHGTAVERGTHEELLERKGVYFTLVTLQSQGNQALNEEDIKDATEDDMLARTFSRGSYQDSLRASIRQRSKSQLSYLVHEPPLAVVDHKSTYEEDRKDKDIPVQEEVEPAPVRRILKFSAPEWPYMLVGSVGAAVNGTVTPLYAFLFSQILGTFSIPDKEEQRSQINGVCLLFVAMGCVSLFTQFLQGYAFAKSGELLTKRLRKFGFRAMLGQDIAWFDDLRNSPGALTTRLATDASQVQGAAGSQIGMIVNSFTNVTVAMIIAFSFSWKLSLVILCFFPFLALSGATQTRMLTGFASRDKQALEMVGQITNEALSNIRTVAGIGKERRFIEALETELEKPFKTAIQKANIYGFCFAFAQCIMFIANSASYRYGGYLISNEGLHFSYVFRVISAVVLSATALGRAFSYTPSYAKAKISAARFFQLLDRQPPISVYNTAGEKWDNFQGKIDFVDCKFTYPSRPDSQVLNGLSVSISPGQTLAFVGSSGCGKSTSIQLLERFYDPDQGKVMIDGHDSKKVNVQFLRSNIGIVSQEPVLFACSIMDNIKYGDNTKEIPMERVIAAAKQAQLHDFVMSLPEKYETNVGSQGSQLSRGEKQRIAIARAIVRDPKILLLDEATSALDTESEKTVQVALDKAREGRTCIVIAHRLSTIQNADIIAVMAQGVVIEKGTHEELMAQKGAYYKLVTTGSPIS

On to `Cc1noc(NS(=O)(=O)c2cccc3c(N(C)C)cccc23)c1C` [BMS-182874], for which the Ki in data set [1] was more than 50000 nM.
In the case of `COc1ccccc1Oc1c(NS(=O)(=O)c2ccc(C(C)(C)C)cc2)nc(-c2ncccn2)nc1OCCO` [Bosentan], the “Induction of cytochrome P450 enzymes” value in data set [2] is “Causes inhibition,”. In data set [3], the Metabolism result is “Through 3A4 and 2C9”; the Route of elimination result is given as “Hepatic”; the t1/2 was 5 h. The “Effect on bile salt” value in data set [4] is recorded as “Inhibits bile salt”.
Regarding `CCCCc1ccc2c(n1)[C@@H](c1ccc(OC)cc1C[C@H](C)C(=O)O)[C@H](C(=O)O)[C@H]2c1ccc2c(c1)OCO2` [J-104132], the Ki is 0.1 nM in data set [1] and 0.034 nM in data set [5] (setting [9]). In addition, in data set [5], the Selectivity was 2.9.
Consider `COc1cc(OC)nc(O[C@H](C(=O)O)C(OC)(c2ccccc2)c2ccccc2)n1` [LU-135252], for which the results for the Ki in data set [1] and in data set [5] (setting [9]) were 184 nM and 1.4 nM, respectively. The Selectivity in data set [5] is recorded as 130.
Regarding `CCCc1nn(C)c2c(=O)[nH]c(-c3cc(S(=O)(=O)N4CCNCC4)ccc3OCC)nc12` [N-Desmethyl Sildenafil], the “Effect of sitaxsentan on levels of the active metabolite” value in data set [6] (in the presence of sitaxsentan) is on record as “No effects”. Further, in data set [6] (setting [10]), the Cmax is on record as 104 ± 40.8 ng/mL, the AUC0-t amounted to 389 ± 105 ng·h/mL, the “AUC∞” value worked out at 425 ± 115 ng·h/mL and the CL/F is 529 ± 164 mL/min. Further, in data set [6] (setting [10]), the t½ was determined as 5.14 ± 2.13 h, the λz is 0.1544 ± 0.0552 h⁻¹ and the Tmax is 1.00 h. Also, in data set [6] (setting [11]), the Cmax was 109 ± 53.1 ng/mL, the AUC0-t came out at 372 ± 107 ng·h/mL, the “AUC∞” value was determined as 440 ± 112 ng·h/mL and the CL/F is reported as 524 ± 234 mL/min. Also, in data set [6] (setting [11]), the t½ amounted to 05.1 ± 1.63 h, the λz was found to be 0.1506 ± 0.0569 h⁻¹ and the Tmax turned out to be 1.00 h. Moreover, in data set [6] (setting [12]), the “AUC0-t, geometric mean ratio (%) estimate” value is 112.43%; the “AUC∞, geometric mean ratio (%) estimate” value is recorded as 105.78%; the “CL/F, geometric mean ratio (%) estimate” value is 88.95%; the “Cmax, geometric mean ratio (%) estimate” value is given as 100.70%. Moreover, the “Vz/F, geometric mean ratio (%) estimate” value in data set [6] (setting [12]) is recorded as 94.89%.
In the case of `COc1ccccc1Oc1c(NS(=O)(=O)c2ccc(C)cn2)nc(-c2ccnc(-c3nnn[nH]3)c2)nc1OCCO` [Ro-61.1790], the results for the Ki in data set [1] and in data set [5] (setting [9]) were more than 130 nM and 0.13 nM, respectively. Further, the Selectivity in data set [5] is given as 1000.
`CC1(C)CC[C@]2(C(=O)[O-])CC[C@]3(COC(=O)/C=C/c4cc([O-])ccc4NC(=O)/C=C/C(=O)O)C(=CC[C@@H]4[C@@]5(C)CCC(=O)C(C)(C)[C@@H]5CC[C@]43C)[C@@H]2C1.[Na+].[Na+]` [S-0139]: the Ki in data set [1] is 1000 nM; in data set [5] (setting [9]) it was 1 nM. Further, in data set [5], the Selectivity is listed as 1000.
On to `CCCOc1ccc2c(c1)[C@@H](c1ccc(OC)cc1OCC(=O)O)[C@H](C(=O)O)[C@H]2c1ccc2c(c1)OCO2` [SB-209670], for which the Selectivity in data set [5] was 90.
Consider `CCCOc1ccc2c(c1)[C@@H](c1ccc(OC)cc1OCCO)[C@H](C(=O)O)[C@H]2c1ccc2c(c1)OCO2` [SB-217242], for which, in data set [5], the Selectivity is 101.
As for `CCCc1nn(C)c2c(=O)[nH]c(-c3cc(S(=O)(=O)N4CCN(C)CC4)ccc3OCC)nc12` [Sildenafil, 1-[[3-(6,7-dihydro-1-methyl-7-oxo-3-propyl-1H-pyrazolo[4,3-d]pyrimidin-5-yl)-4-ethoxyphenyl]sulfonyl]-4-methylpiperazine citrate], the Cmax in data set [6] (human, plasma, po, 100 mg, single 100 mg oral sildenafil after 100 mg sitaxsentan daily for seven days, read-out: Cmax) was 440 ± 232 ng/mL; in data set [6] (human, plasma, po, 100 mg, single 100 mg oral sildenafil after placebo daily for seven days, read-out: Cmax), 377 ± 208 ng/mL. In addition, the AUC(0-inf) in data set [6] (setting [13]) was found to be 1650 ng·h/mL; in data set [6] (setting [14]), 1300 ng·h/mL. Also, the AUC0-t in data set [6] (human, plasma, po, 100 mg, single 100 mg oral sildenafil after 100 mg sitaxsentan daily for seven days, read-out: AUC0-t) stood at 1580 ng·h/mL; in data set [6] (human, plasma, po, 100 mg, single 100 mg oral sildenafil after placebo daily for seven days, read-out: AUC0-t), 1220 ng·h/mL. Also, the Vd/F in data set [6] (setting [13]) came to 34.8 ± 11.5 L; in data set [6] (setting [14]), 43.6 ± 18.9 L. Besides, the half-life is 2.82 ± 0.45 h in data set [6] (setting [13]) and 2.76 ± 0.45 h in data set [6] (setting [14]). Further, the Tmax in data set [6] (human, plasma, po, 100 mg, single 100 mg oral sildenafil after 100 mg sitaxsentan daily for seven days, read-out: Tmax) was determined as 1.25 h; in data set [6] (human, plasma, po, 100 mg, single 100 mg oral sildenafil after placebo daily for seven days, read-out: Tmax), 1 h. The “Increase of AUC∞ (area under the plasma concentration/time curve)” value in data set [6] (in the presence of sitaxsentan) came to 28%. Besides, the “Increase of Cmax (maximum concentration)” value in data set [6] (in the presence of sitaxsentan) is listed as 18%. For the same compound, the figures for the CL/F in data set [6] (setting [10]) and in data set [6] (setting [11]) were 147 ± 56.4 mL/min and 184 ± 69.0 mL/min, respectively. Further, the λz in data set [6] (setting [10]) was 0.2514 ± 0.0364 h⁻¹; in data set [6] (setting [11]), 0.2584 ± 0.0444 h⁻¹.
For `Cc1ccc(-c2c(NS(=O)(=O)c3ccc(C(C)(C)CO)cc3)ncnc2OCCOc2ncc(Br)cn2)cc1` [T-0201], the Ki in data set [5] (setting [9]) is 0.015 nM.
As for `COc1nc(C)cnc1NS(=O)(=O)c1cccnc1-c1ccc(CC(C)(C)C(=O)O)cc1` [ZD-1811], the Ki in data set [1] is more than 2000 nM; in data set [5] (estimated from the IC∞ value, read-out: Binding K1 (nM) to ETA, K1 estimated from the IC∞ value) it was 1.3 nM. In addition, the Selectivity in data set [5] is recorded as 1500.
With FR-139317, the Ki in data set [1] is 7300 nM.
For the compound “cyclo(D-Glu-L-Ala-allo-D-Ile-L-Leu-D-Trp) [BE-18257B]”, the IC50 is 1400 nM in data set [7] (aortic smooth muscle), 500 nM in data set [7] (cultured aortic smooth muscle cells) and 800 nM in data set [7] (ventricle membranes). Further, in data set [8], the “Inhibition of binding to receptors in tissues in which ETB predominates” value was “fails to inhibit binding”.
